Laboratory results taken from patent US20070258986A1, “Targeted Delivery System for Bioactive Agents” (Govt of the US as represented by the secretary,, priority 2003, published 2007).

Tests used:
Y289L GalT [1] = target: T1, Y289L GalT (Bos taurus, UniProt P08037, Y289L); assay: Labeling of O-GlcNAc glycosylated CREB protein with analogue 1 and Y289L GalT, aminooxy biotin, streptavidin-HRP blot; type: biochemical, bovine; conditions: recombinant CREB from Sf9 cells, analogue 1 1 mM, 12 h at 4° C., then aminooxy biotin
T1 construct: the catalytic domain of GalT has a tyrosine exchanged with another amino acid; made in house
T1 sequence (P08037 130-402 Y289L limits assumed): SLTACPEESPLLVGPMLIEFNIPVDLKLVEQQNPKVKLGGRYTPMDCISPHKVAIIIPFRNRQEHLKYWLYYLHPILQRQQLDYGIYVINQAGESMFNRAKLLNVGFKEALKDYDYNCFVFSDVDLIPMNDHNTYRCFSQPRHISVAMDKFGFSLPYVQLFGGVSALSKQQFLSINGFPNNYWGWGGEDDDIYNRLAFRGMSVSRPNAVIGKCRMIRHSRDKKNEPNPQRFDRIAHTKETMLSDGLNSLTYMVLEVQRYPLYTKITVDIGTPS
Method: Labeling of CREB protein: Recombinant O-GlcNAc glycosylated CREB was generated by coexpression of CREB with O-GlcNAc glycosyltransferase in Sf9 cells as described previously (Lamarre-Vincent et al., 2003). 500 ng of CREB in 20 mM HEPES pH 7.9, 100 mM KCl, 0.2 mM EDTA, 15% glycerol was added to 50 mM MOPS pH 6.45 containing 5 mM MnCl2 and 0.25 mU/μL alkaline phosphatase (Unverzagt et al., 1990). Analogue 1 and Y289L GalT were then added to final concentrations of 1 mM and 40 ng/μL, respectively. Control reactions without enzyme or analogue 1 were treated identically. Following incubation at 12 h at 4° C., the reactions were diluted 5-fold into PBS containing protease inhibitors (5 μg/mL pepstatin, 5 μg/mL chymostatin, 20/μg/mL leupeptin, 20 μg/mL aprotinin, 20 μg/mL antipain, 0.2 mM PMSF). Aminooxy biotin was added to a final concentration of 2 mM, and the biotinylation reactions were incubated with gentle shaking for 12 h at 37° C. Reactions were aliquoted for analysis and stopped by boiling in SDS-PAGE loading dye. Proteins were resolved by 10% SDS-PAGE, electrophoretically transferred to nitrocellulose, and probed with streptavidin-HRP. […]

Y289L GalT [2] = target: T1, Y289L GalT; assay: Labeling of the O-GlcNAc peptide with ketone analogue 1 by mutant Y289L GalT (LC-MS); type: biochemical, bovine; conditions: peptide TAPTS(O-GlcNAc)TIAPG 10 μM, analogue 1 1 mM, 6 h at 4° C.
Method: Labeling of the O-GlcNAc Peptide: The peptide TAPTS(O-GlcNAc)TIAPG (10 μM was dissolved in 25 mM MOPS buffer, pH 6.7 containing 5 mM MnCl2 and 8 μM reference peptide (ThermoFinnigan, San Jose, Calif.). Ketone analogue 1 and mutant Y289L GalT were added to final concentrations of 1 mM and 100 ng/μL, respectively. Prior to enzyme addition, an aliquot of the reaction was removed as an initial time point for LC-MS analysis. Reactions were incubated at 4° C. for 6 h, after which an aliquot of the reaction mixture was removed for product analysis by LC-MS. The remainder of the reaction was diluted 5-fold into PBS (final concentration: 10.1 mM Na2HPO4, 1.76 mM KH2 HPO4, 137 mM NaCl, 2.7 mM KCl, pH 6.7), and N-(aminooxyacetyl)-N′-(D-biotinoyl) hydrazine (Molecular Probes, Eugene, Oreg.) was added to a final concentration of 12 mM. After 8 h at 25° C., the extent of biotin-oxime product was measured by LC-MS. […] Labeling reactions with wild-type GalT were performed identically, with the exception that reactions were incubated at 37° C. for 12 h. […]
For the aminooxy biotin reaction, formation of the oxime product was monitored using an extracted ion chromatogram within the mass range 1319.0-1321.0 m/z and 1633.0-1635.5 m/z, which was generated post-acquisition via the Xcalibur™ software. […]

labeling of glycosylated CREB (chemiluminescence) (Y289L GalT [1]; diammonium salt): Strong, selective labeling | labeling of glycosylated CREB (chemiluminescence) (Y289L GalT [1]; listed as 1, diammonium salt): Strong labeling | conversion of the peptide to the ketone-labeled product (Y289L GalT [2]): complete conversion
Compound: CC(=O)C[C@H]1[C@@H](OP(=O)(O)OP(=O)(O)OC[C@H]2O[C@@H](n3ccc(=O)[nH]c3=O)[C@H](O)[C@@H]2O)O[C@H](CO)[C@H](O)[C@@H]1O.N.N [analogue 1, Uridine 5′-diphospho-2-acetonyl-2deoxy-α-D-galactopyranose diammonium salt]
